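Results reflect a 48-hour exposure of cells in 96-well plates to compound at five concentrations. Here, GI50 denotes the concentration required for 50% inhibition of growth.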 Active and inactive are the calls of the source. Rule as the data show it: active = GI50 up to about 1.1 µM and inactive = higher.
Columns and labels:
Experiment in all cases: NCI-60 cell line screen, 48 h
SW-620 = tested on: SW-620
OVCAR-5 = tested on: OVCAR-5
CAKI-1 = tested on: CAKI-1
SN12C = tested on: SN12C
SF-268 = tested on: SF-268
HT-29 = tested on: HT-29
NCI-H460 = tested on: NCI-H460
SNB-19 = tested on: SNB-19
SF-295 = tested on: SF-295
KM12 = tested on: KM12
LOX IMVI = tested on: LOX IMVI
COLO 205 = tested on: COLO 205
NCI-H23 = tested on: NCI-H23
UACC-257 = tested on: UACC-257
SR = tested on: SR
786-0 = tested on: 786-0
A498 = tested on: A498
HOP-62 = tested on: HOP-62

Row | Compound | GI50 (SW-620) | GI50 (OVCAR-5) | GI50 (CAKI-1) | GI50 (SN12C) | GI50 (SF-268) | GI50 (HT-29) | GI50 (NCI-H460) | GI50 (SNB-19) | GI50 (SF-295) | GI50 (KM12) | GI50 (LOX IMVI) | GI50 (COLO 205) | GI50 (NCI-H23) | GI50 (UACC-257) | GI50 (SR) | GI50 (786-0) | GI50 (A498) | GI50 (HOP-62)
1 | COC(=O)C1Cc2c([nH]c3ccccc23)C(C2CCCCC2)N1 (centres undefined) | > 100 µM (inactive) | > 100 µM (inactive) | > 100 µM (inactive) | > 100 µM (inactive) | > 100 µM (inactive) | > 100 µM (inactive) | > 100 µM (inactive) | > 100 µM (inactive) | > 100 µM (inactive) | > 100 µM (inactive) | > 100 µM (inactive) | > 100 µM (inactive) | > 100 µM (inactive) | > 100 µM (inactive) | > 100 µM (inactive) | > 100 µM (inactive) |  | 
2 | Cc1cccc(C)c1NC(=O)/C(=N/NC(N)=S)C(C)C(=O)c1ccc(Cl)cc1 (centres undefined) | > 100 µM (inactive) | > 100 µM (inactive) | > 100 µM (inactive) | > 100 µM (inactive) | > 100 µM (inactive) | 75.9 µM (inactive) | > 100 µM (inactive) | > 100 µM (inactive) | > 100 µM (inactive) | > 100 µM (inactive) |  | > 100 µM (inactive) | > 100 µM (inactive) | > 100 µM (inactive) | > 100 µM (inactive) | > 100 µM (inactive) | > 100 µM (inactive) | > 100 µM (inactive)
3 | C=CCN1COc2c(cc3c4c(cccc24)C(=O)O3)C1 | 25.4 µM (inactive) | 36.6 µM (inactive) | 27.5 µM (inactive) | 21 µM (inactive) | 48.6 µM (inactive) | 23.8 µM (inactive) | 43.6 µM (inactive) | > 100 µM (inactive) | 35.1 µM (inactive) | 75.3 µM (inactive) | > 10 µM (inactive) | 17.9 µM (inactive) | 21.4 µM (inactive) | 26.4 µM (inactive) |  | 20.5 µM (inactive) | 21.5 µM (inactive) | > 100 µM (inactive)
4 | COc1ccc2cc3[n+](cc2c1OC)CCc1cc(O)c(O)cc1-3 | > 100 µM (inactive) | > 100 µM (inactive) | > 100 µM (inactive) | > 100 µM (inactive) | > 100 µM (inactive) | > 100 µM (inactive) | > 100 µM (inactive) | > 100 µM (inactive) | > 100 µM (inactive) | > 100 µM (inactive) | > 100 µM (inactive) | > 100 µM (inactive) | > 100 µM (inactive) | > 100 µM (inactive) |  | > 100 µM (inactive) | > 100 µM (inactive) | > 100 µM (inactive)
5 | CCCc1cc(OC(=O)c2c(O)cc(OC)cc2CCC)cc(O)c1C(=O)O | 37.9 µM (inactive) | 35 µM (inactive) |  |  |  | 33 µM (inactive) | 23.9 µM (inactive) | 25.1 µM (inactive) |  | 28.2 µM (inactive) | 23.8 µM (inactive) | 26.4 µM (inactive) | 18 µM (inactive) | 18.8 µM (inactive) |  | 36 µM (inactive) | 28.9 µM (inactive) | 16.6 µM (inactive)
6 | O=C1/C(=C/c2cc(O)c(O)c(O)c2)Oc2cc(O)cc(OC3OC(CO)C(O)C(O)C3O)c21 (centres undefined) | 24.1 µM (inactive) |  |  | 17.3 µM (inactive) |  | 23.9 µM (inactive) | 13.9 µM (inactive) | > 100 µM (inactive) | 16.5 µM (inactive) | 29.6 µM (inactive) | 1.73 µM (inactive) | 22.2 µM (inactive) | 19.1 µM (inactive) |  |  | 27.9 µM (inactive) | 23.9 µM (inactive) | 
7 | O=[PH](O)c1cc2c3ccccc3ccc2c2ccccc12 | > 100 µM (inactive) |  |  | > 100 µM (inactive) | > 100 µM (inactive) | > 100 µM (inactive) | > 100 µM (inactive) | > 100 µM (inactive) | > 100 µM (inactive) | > 100 µM (inactive) | > 100 µM (inactive) | > 100 µM (inactive) | > 100 µM (inactive) |  |  | > 100 µM (inactive) |  | > 100 µM (inactive)
8 | CCOC(=O)c1oc2ccc(OC)c3c2c1CCC3 | > 100 µM (inactive) | 44.7 µM (inactive) |  | > 100 µM (inactive) | > 100 µM (inactive) | > 10 µM (inactive) | > 100 µM (inactive) | > 100 µM (inactive) | > 100 µM (inactive) | > 100 µM (inactive) | > 100 µM (inactive) | > 100 µM (inactive) | 59.6 µM (inactive) | 13.7 µM (inactive) | 37.9 µM (inactive) | > 100 µM (inactive) | > 100 µM (inactive) | > 100 µM (inactive)
9 | Cc1ccc2c(c1)CNc1ccc(C)cc1CN2 | > 100 µM (inactive) | > 100 µM (inactive) | > 100 µM (inactive) | > 100 µM (inactive) | > 100 µM (inactive) | > 100 µM (inactive) | > 100 µM (inactive) | < 0.01 µM (active) | > 100 µM (inactive) | > 100 µM (inactive) | > 100 µM (inactive) | > 100 µM (inactive) | > 100 µM (inactive) |  | > 100 µM (inactive) | > 100 µM (inactive) |  | > 100 µM (inactive)
10 | O=C(CC1(O)C(=O)Nc2ccc(Br)cc21)c1ccc(Cl)cc1 (centres undefined) | 43.2 µM (inactive) | > 100 µM (inactive) |  | 77.8 µM (inactive) | > 100 µM (inactive) | 42 µM (inactive) | > 100 µM (inactive) | 84.9 µM (inactive) | > 100 µM (inactive) | 47.4 µM (inactive) | 18.2 µM (inactive) | > 100 µM (inactive) | 67.6 µM (inactive) | 30.2 µM (inactive) |  | 75.7 µM (inactive) | > 100 µM (inactive) | 68.9 µM (inactive)
11 | CN1C(=O)C(=CN)C(=O)N(C)C1=O | > 100 µM (inactive) | > 100 µM (inactive) | > 100 µM (inactive) | > 100 µM (inactive) | > 100 µM (inactive) | > 100 µM (inactive) | > 100 µM (inactive) | > 100 µM (inactive) | > 100 µM (inactive) | > 100 µM (inactive) | > 100 µM (inactive) |  | > 100 µM (inactive) | > 100 µM (inactive) | > 100 µM (inactive) | > 100 µM (inactive) |  | 
12 | CC1CC(C2=CC=CCS2)=Nc2ccccc2S1 (centres undefined) | > 100 µM (inactive) | > 100 µM (inactive) | > 100 µM (inactive) | > 100 µM (inactive) | > 100 µM (inactive) |  | > 100 µM (inactive) | 71.3 µM (inactive) | > 100 µM (inactive) | > 100 µM (inactive) | > 100 µM (inactive) | > 100 µM (inactive) | > 100 µM (inactive) | 12.3 µM (inactive) |  | > 100 µM (inactive) | > 100 µM (inactive) | > 100 µM (inactive)
13 | NC(CCc1nc(-c2ccccc2)cs1)C(=O)O (centres undefined) | > 100 µM (inactive) |  | > 100 µM (inactive) | > 100 µM (inactive) |  | > 100 µM (inactive) | > 100 µM (inactive) | > 100 µM (inactive) | > 100 µM (inactive) | > 100 µM (inactive) | > 100 µM (inactive) | > 100 µM (inactive) | > 100 µM (inactive) | > 100 µM (inactive) |  | 81.7 µM (inactive) | > 100 µM (inactive) | 
14 | CC(=O)/C=C1\CC(=O)Nc2ccccc2N1 | > 100 µM (inactive) | > 100 µM (inactive) | > 100 µM (inactive) | > 100 µM (inactive) | > 100 µM (inactive) | > 100 µM (inactive) | > 100 µM (inactive) | > 100 µM (inactive) | > 100 µM (inactive) | > 100 µM (inactive) | > 100 µM (inactive) |  | > 100 µM (inactive) | > 100 µM (inactive) |  | > 100 µM (inactive) | > 100 µM (inactive) | 
15 | C=CCc1cc(-c2cc(CC=C)c(O)c(CNCCCl)c2)cc(CNCCCl)c1O | 20.8 µM (inactive) |  |  | 19.8 µM (inactive) | 22.6 µM (inactive) | 17.4 µM (inactive) | 16.8 µM (inactive) | 30 µM (inactive) | 17.5 µM (inactive) | 17.3 µM (inactive) | 15.3 µM (inactive) | 17.9 µM (inactive) | 16 µM (inactive) | 17.4 µM (inactive) |  | 28.6 µM (inactive) | 18.7 µM (inactive) | 18 µM (inactive)
16 | CC1=C(C(=O)CC(=O)C(=O)Nc2ccc(C)c(C)c2)Sc2ccccc2N1 | > 100 µM (inactive) | > 100 µM (inactive) | > 100 µM (inactive) | > 100 µM (inactive) | > 100 µM (inactive) | > 100 µM (inactive) | > 100 µM (inactive) | > 100 µM (inactive) | > 100 µM (inactive) | > 100 µM (inactive) | > 100 µM (inactive) | > 100 µM (inactive) | > 100 µM (inactive) | > 100 µM (inactive) |  | > 100 µM (inactive) | > 100 µM (inactive) | > 100 µM (inactive)
17 | CCOc1ccccc1NC(=O)C(=O)Cc1nc2ccccc2s1 | > 100 µM (inactive) |  | > 100 µM (inactive) | > 100 µM (inactive) | > 100 µM (inactive) | > 100 µM (inactive) | > 100 µM (inactive) | > 100 µM (inactive) | > 100 µM (inactive) | > 100 µM (inactive) |  | > 100 µM (inactive) | > 100 µM (inactive) | > 100 µM (inactive) | > 100 µM (inactive) | > 100 µM (inactive) | > 100 µM (inactive) | > 100 µM (inactive)
18 | O=C1C(Cl)C(c2ccccc2)N1n1cnc2ccccc2c1=O (centres undefined) | > 100 µM (inactive) | > 100 µM (inactive) | 37.8 µM (inactive) | > 100 µM (inactive) | 85.3 µM (inactive) | > 100 µM (inactive) | > 100 µM (inactive) | 60.4 µM (inactive) | > 100 µM (inactive) | > 100 µM (inactive) | > 100 µM (inactive) | > 100 µM (inactive) | > 100 µM (inactive) | > 100 µM (inactive) | 36.1 µM (inactive) | > 100 µM (inactive) |  | > 100 µM (inactive)
